Among the data in US9371319B2, “Pyrrolopyridineamino derivatives as MPS1 inhibitors” (priority 2011, dated 2016) are IC50 values, retold here.

The target in this assay is T1, full length MPS1 (Homo sapiens, UniProt P33981).
T1 sequence (P33981 1-857): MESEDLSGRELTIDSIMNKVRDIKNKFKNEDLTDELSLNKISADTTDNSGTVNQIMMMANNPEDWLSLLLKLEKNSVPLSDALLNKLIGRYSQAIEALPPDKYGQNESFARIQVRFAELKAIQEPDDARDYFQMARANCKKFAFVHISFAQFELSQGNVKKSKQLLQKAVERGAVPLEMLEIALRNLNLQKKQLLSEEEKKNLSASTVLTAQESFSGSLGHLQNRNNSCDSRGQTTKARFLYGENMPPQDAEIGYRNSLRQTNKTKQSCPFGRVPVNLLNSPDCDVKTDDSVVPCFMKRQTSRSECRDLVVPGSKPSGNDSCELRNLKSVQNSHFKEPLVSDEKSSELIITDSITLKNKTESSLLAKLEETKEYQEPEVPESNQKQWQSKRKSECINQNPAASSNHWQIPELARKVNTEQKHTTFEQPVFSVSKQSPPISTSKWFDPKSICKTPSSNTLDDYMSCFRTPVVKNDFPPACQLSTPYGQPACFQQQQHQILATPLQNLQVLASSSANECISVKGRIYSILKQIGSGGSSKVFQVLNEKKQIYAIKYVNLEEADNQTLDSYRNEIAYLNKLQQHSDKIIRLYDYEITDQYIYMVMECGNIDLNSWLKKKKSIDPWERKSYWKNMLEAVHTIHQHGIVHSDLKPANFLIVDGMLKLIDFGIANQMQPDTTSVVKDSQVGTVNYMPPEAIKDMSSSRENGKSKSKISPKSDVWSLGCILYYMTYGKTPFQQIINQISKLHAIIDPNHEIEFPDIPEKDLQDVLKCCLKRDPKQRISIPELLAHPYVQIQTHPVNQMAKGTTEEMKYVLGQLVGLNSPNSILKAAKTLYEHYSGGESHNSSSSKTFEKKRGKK
The assay is described as follows: biochemical. The procedure: Measurement of Inhibition of MPS1 Kinase
(5 μM), ATP (10 μM), either DMSO (1% v/v) or the test compound (in the range 0.25 nM-100 μM in 1% DMSO) and assay buffer (50 mM HEPES (pH 7.0), 0.02% NaN3, 0.01% BSA, 0.1 mM Orthovandate, […], 1 μM DTT, Roche protease inhibitor). The reaction was carried out for 60 min at room temperature and stopped by the addition of buffer (10 μl) containing 20 mM EDTA, 0.05% (v/v) Brij-35, in 0.1M HEPES-buffered saline (Free acid, Sigma, UK). The plate was read on a Caliper EZ reader II (Caliper Life Sciences).
The % inhibition of the compounds is calculated relative to the means of selected control wells. […] The % inhibitions at each concentration are then fitted to a 4 parameter logistic fit: y=(a+((b−a)/(1+((c/x^d)))) where a=asym min, b=asym max, c=IC50 and d=hill coefficient

Turning to `COc1ccc(Nc2cc3[nH]c(-c4cnn(C)c4)cc3cn2)c(F)c1` [Example 155, N-(2-Fluoro-4-methoxyphenyl)-2-(1-methyl-1H-pyrazol-4-yl)-1H-pyrrolo[3,2-c]pyridin-6-amine], the IC50 was found to be 53 nM. With `COc1ccc(Nc2cc3c(cn2)cc(-c2cn[nH]c2)n3C)cc1OC` [Example 126, N-(3,4-dimethoxyphenyl)-1-methyl-2-(1H-pyrazol-4-yl)-1H-pyrrolo[3,2-c]pyridin-6-amine], the concentration for half-maximal inhibition (IC50) was 26 nM. `COc1ccc(Nc2cc3[nH]c(-c4cnn(CC(=O)N(C)C)c4)cc3cn2)c(OC)c1` [Example 135, 2-(4-(6-(2,4-Dimethoxyphenylamino)-1H-pyrrolo[3,2-c]pyridin-2-yl)-1H-pyrazol-1-yl)-N,N-dimethylacetamide] displayed an IC50 of 821 nM. This IC50 is about 32-fold higher than that of the compound before. As for `CN(C)C(=O)c1ccc(Nc2cc3c(cn2)cc(-c2cnn(C)c2)n3C(=O)OC2CCCC2)c(Cl)c1` [Example 72], the figure is 3 nM; as for `CN(C)C(=O)c1ccc(Nc2cc3c(cn2)cc(-c2cnn(C)c2)n3C(=O)OC2CCC2)c(Cl)c1` [Example 81], 3 nM; as for `Cc1c(-c2ccc(Nc3cc4c(cn3)cc(-c3cnn(C)c3)n4C(=O)OC(C)(C)C)c(Cl)c2)cnn1C` [Example 20], 7 nM. To `CN(C)C(=O)c1ccc(Nc2cc3[nH]c(-c4cn[nH]c4)cc3cn2)cc1` [Example 168, 4-(2-(1H-Pyrazol-4-yl)-1H-pyrrolo[3,2-c]pyridin-6-ylamino)-N,N-dimethylbenzamide] belongs 11 nM. Compound `COCCNC(=O)c1ccc(Nc2cc3[nH]c(-c4cnn(C)c4)cc3cn2)c(OC)c1` [Example 119, 3-Methoxy-N-(2-methoxyethyl)-4-(2-(1-methyl-1H-pyrazol-4-yl)-1H-pyrrolo[3,2-c]pyridin-6-ylamino)benzamide] came in with a half-inhibitory concentration (IC50) of 19 nM.

Compound `COc1cc(CN(C)C)ccc1Nc1cc2[nH]c(-c3cnn(C)c3)cc2cn1` [Example 139, N-(4-((dimethylamino)methyl)-2-methoxyphenyl)-2-(1-methyl-1H-pyrazol-4-yl)-1H-pyrrolo[3,2-c]pyridin-6-amine] registered a half-maximal inhibitory concentration (IC50) of 55 nM. As to `COc1cc(CN(C)C)ccc1Nc1cc2c(cn1)cc(-c1cnn(C)c1)n2C(=O)OC(C)(C)C` [Example 35], the IC50 was found to be 8 nM. To `Cn1cc(-c2cc3cnc(Nc4ccc(S(C)(=O)=O)cc4Cl)cc3n2C(=O)OC(C)(C)C)cn1` [Example 55] belongs 24 nM. `CN(C)C(=O)c1ccc(Nc2cc3c(cn2)cc(-c2cnn(C)c2)n3CC2CCCC2)c(Cl)c1` [Example 64, 3-Chloro-4-(1-(cyclopentylmethyl)-2-(1-methyl-1H-pyrazol-4-yl)-1H-pyrrolo[3,2-c]pyridin-6-ylamino)-N,N-dimethylbenzamide] registered an IC50 of 47 nM. Compared with the last compound, the IC50 is about 2-fold higher.

Consider `Cn1cc(-c2ccc(Cl)c(Nc3cc4[nH]c(-c5cnn(C)c5)cc4cn3)c2)cn1` [Example 184, N-(2-Chloro-5-(1-methyl-1H-pyrazol-4-yl)phenyl)-2-(1-methyl-1H-pyrazol-4-yl)-1H-pyrrolo[3,2-c]pyridin-6-amine], for which the half-maximal inhibitory concentration (IC50) came out at 548 nM. This IC50 is about 12-fold higher than that of the compound before. Compound `Cn1cc(-c2cc3cnc(Nc4ccc(-c5cncn5C)cc4Cl)cc3n2C(=O)OC2CCC2)cn1` [Example 82] yielded an IC50 of 5 nM. The compound `COc1cc(CN)ccc1Nc1cc2[nH]c(-c3cnn(C)c3)cc2cn1` [Example 140, N-(4-(Aminomethyl)-2-methoxyphenyl)-2-(1-methyl-1H-pyrazol-4-yl)-1H-pyrrolo[3,2-c]pyridin-6-amine] gave an IC50 of 43 nM. Take `Cn1cc(-c2cc3cnc(Nc4ccc(C(=O)N5CCCC5)cc4Cl)cc3n2C(=O)OC(C)(C)C)cn1` [Example 40]: the midpoint of inhibition, the IC50, lay at 4 nM. Turning to `COCCn1c(-c2cnn(C)c2)cc2cnc(Nc3ccc(-c4cnc(C)n4C)cc3Cl)cc21` [Example 104], the concentration for half-maximal inhibition (IC50) is 83 nM. As for `FC(F)(F)c1ccc(Nc2cc3[nH]c(-c4cn[nH]c4)cc3cn2)cc1` [Example 161, 2-(1H-Pyrazol-4-yl)-N-(4-(trifluoromethyl)phenyl)-1H-pyrrolo[3,2-c]pyridin-6-amine], the figure is 1060 nM; as for `Cn1cc(-c2cc3cnc(Nc4ccc(-c5nccn5C)cc4Cl)cc3n2C(=O)OC(C)(C)C)cn1` [Example 22], 3 nM; as for `Cn1cc(-c2cc3cnc(Nc4ccc(F)cc4Cl)cc3[nH]2)cn1` [Example 130, N-(2-Chloro-4-fluorophenyl)-2-(1-methyl-1H-pyrazol-4-yl)-1H-pyrrolo[3,2-c]pyridin-6-amine], 510 nM. The compound `Cn1cc(-c2[nH]c3cc(Nc4ccccc4Cl)ncc3c2Cl)cn1` [Example 193, 3-Chloro-N-(2-chlorophenyl)-2-(1-methyl-1H-pyrazol-4-yl)-1H-pyrrolo[3,2-c]pyridin-6-amine] showed an IC50 of 421 nM.

For the compound `Cc1ccc(-n2c(-c3cnn(C)c3)cc3cnc(Nc4ccc(C(=O)N(C)C)cc4Cl)cc32)nc1` [Example 92], inhibition was half-maximal at 43 nM (IC50). For the compound `CC(=O)c1ccccc1Nc1cc2c(cn1)cc(-c1cnn(C)c1)n2C(=O)OC(C)(C)C` [Example 9], inhibition was half-maximal at 77 nM (IC50). `CNC(=O)c1ccc(Nc2cc3[nH]c(-c4cnn(C)c4)cc3cn2)c(OC)c1` [Example 133, 3-Methoxy-N-methyl-4-(2-(1-methyl-1H-pyrazol-4-yl)-1H-pyrrolo[3,2-c]pyridin-6-ylamino)benzamide] had an IC50 of 27 nM. The compound `COc1ccc(-c2ccc(Nc3cc4c(cn3)cc(-c3cnn(C)c3)n4C(=O)OC(C)(C)C)c(Cl)c2)cn1` [Example 48] displayed an IC50 of 16 nM. This IC50 lies about 1.7-fold lower than the previous one. For `Cn1cc(-c2cc3cnc(Nc4ccc(N5CCCC5=O)cc4Cl)cc3[nH]2)cn1` [Example 136, 1-(3-chloro-4-((2-(1-methyl-1H-pyrazol-4-yl)-1H-pyrrolo[3,2-c]pyridin-6-yl)amino)phenyl)pyrrolidin-2-one], it took 18 nM to reach half-maximal inhibition (IC50). On to `Cc1nc(C)c(-c2ccc(Nc3cc4c(cn3)cc(-c3cnn(C)c3)n4C(=O)OC(C)(C)C)c(Cl)c2)s1` [Example 45], for which the IC50 came out at 52 nM. For `COc1cc(C(=O)N2CCOCC2)ccc1Nc1cc2[nH]c(-c3cnn(C)c3)cc2cn1` [Example 118, (3-Methoxy-4-(2-(1-methyl-1H-pyrazol-4-yl)-1H-pyrrolo[3,2-c]pyridin-6-ylamino)phenyl)(morpholino)methanone], the IC50 was 12 nM. This IC50 is about 4.3-fold lower than that of the compound before. `CN(C)C(=O)c1ccc(Nc2cc3c(cn2)c(Cl)c(-c2cnn(C)c2)n3CC2CC2)c(Cl)c1` [Example 192, 3-Chloro-4-(3-chloro-1-(cyclopropylmethyl)-2-(1-methyl-1H-pyrazol-4-yl)-1H-pyrrolo[3,2-c]pyridin-6-ylamino)-N,N-dimethylbenzamide] had an IC50 of 53 nM. `CN(C)C(=O)c1ccc(Nc2cc3c(cn2)cc(-c2cnn(C)c2)n3-c2ncccn2)c(Cl)c1` [Example 93] gave a 50% inhibitory concentration (IC50) of 94 nM.

Turning to `Cn1cc(-c2cc3cnc(Nc4ccc(C(=O)N5CC(F)(F)C5)cc4Cl)cc3n2C(=O)OC(C)(C)C)cn1` [Example 50], the IC50 was found to be 6 nM. As to `COC1CN(C(=O)c2ccc(Nc3cc4[nH]c(-c5cnn(C)c5)cc4cn3)c(Cl)c2)C1` [Example 142, (3-Chloro-4-(2-(1-methyl-1H-pyrazol-4-yl)-1H-pyrrolo[3,2-c]pyridin-6-ylamino)phenyl)(3-methoxyazetidin-1-yl)methanone], the 50% inhibitory concentration (IC50) is 10 nM. Compared with the last compound, the IC50 is about 1.7-fold higher.

`COC1CN(C(=O)c2ccc(Nc3cc4c(cn3)cc(-c3cnn(C)c3)n4C(=O)OC(C)(C)C)c(Cl)c2)C1` [Example 37] had a concentration for half-maximal inhibition (IC50) of 8 nM. This IC50 and that of the compound before are within 1.5-fold of each other.

`Cn1cc(-c2cc3cnc(Nc4ccc(-c5ccnn5C)cc4Cl)cc3[nH]2)cn1` [Example 149, N-(2-Chloro-4-(1-methyl-1H-pyrazol-5-yl)phenyl)-2-(1-methyl-1H-pyrazol-4-yl)-1H-pyrrolo[3,2-c]pyridin-6-amine]: the IC50 came to 22 nM. As for `CN(C)C(=O)c1ccc(Nc2cc3[nH]c(-c4cnco4)c(Cl)c3cn2)c(Cl)c1` [Example 178, 3-Chloro-4-(3-chloro-2-(oxazol-5-yl)-1H-pyrrolo[3,2-c]pyridin-6-ylamino)-N,N-dimethylbenzamide], 3 nM corresponded to half-maximal inhibition (IC50). This IC50 is about 7.3-fold lower than that of the compound before. As for `c1cc(Nc2cc3[nH]c(-c4cn[nH]c4)cc3cn2)ccc1CN1CCOCC1` [Example 171, N-(4-(Morpholinomethyl)phenyl)-2-(1H-pyrazol-4-yl)-1H-pyrrolo[3,2-c]pyridin-6-amine], the figure is 9 nM.
